Columns and labels:
[1] = system: normal NK cells expanded with K562-aAPC; experiment: percent inhibition of viability; higher = more inhibition; settings: 72 h, IL-2 2.5 ng/mL
Experimental: (§1)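 Drug sensitivity and resistance testing on K562-aAPC-expanded normal NK cells: 5 concentrations (10-fold steps over a 10,000-fold range), 72 h at 37 °C, viability by CellTiter-Glo normalised to DMSO and benzethonium chloride controls; DSS from the fitted curve.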

DERL-7 (IL-2 2.5 ng/mL) [2] = experiment: as above; settings: 72 h
IMC-1 (IL-2 20 ng/mL) [3] = experiment: as above; settings: 72 h
KAI3 (IL-2 2.5 ng/mL) [4] = experiment: as above; settings: 72 h
KHYG-1 (IL-2 2.5 ng/mL) [5] = experiment: as above; settings: 72 h
NK-92 (IL-2 2.5 ng/mL) [6] = experiment: as above; settings: 72 h
NK-YS (IL-2 2.5 ng/mL) [7] = experiment: as above; settings: 72 h
NKL (IL-2 2.5 ng/mL) [8] = experiment: as above; settings: 72 h
SNK-6 (IL-2 2.5 ng/mL) [9] = experiment: as above; settings: 72 h
YT (IL-2 2.5 ng/mL) [10] = experiment: as above; settings: 72 h
[11] = system: normal primary NK cells, pool 1 (3 donors) (IL-2 2.5 ng/mL); experiment: as above; settings: 72 h
[12] = system: normal primary NK cells, pool 1 (3 donors), resting (IL-2 0 ng/mL); experiment: as above; settings: 72 h
[13] = system: normal primary NK cells, pool 2 (3 donors) (IL-2 2.5 ng/mL); experiment: as above; settings: 72 h
[14] = system: normal primary NK cells, pool 3 (3 donors) (IL-2 2.5 ng/mL); experiment: as above; settings: 72 h
[15] = system: normal NK cells expanded with K562-aAPC; experiment: drug sensitivity score (DSS) (DSS units); higher = more sensitive; extreme values may be limits of the assay; settings: 72 h; IL-2 2.5 ng/mL
Experimental: as §1

DERL-7 (IL-2 2.5 ng/mL) [16] = experiment: as above; settings: 72 h
IMC-1 (IL-2 20 ng/mL) [17] = experiment: as above; settings: 72 h
KAI3 (IL-2 2.5 ng/mL) [18] = experiment: as above; settings: 72 h
KHYG-1 (IL-2 2.5 ng/mL) [19] = experiment: as above; settings: 72 h
NK-92 (IL-2 2.5 ng/mL) [20] = experiment: as above; settings: 72 h
NK-YS (IL-2 2.5 ng/mL) [21] = experiment: as above; settings: 72 h
NKL (IL-2 2.5 ng/mL) [22] = experiment: as above; settings: 72 h
SNK-6 (IL-2 2.5 ng/mL) [23] = experiment: as above; settings: 72 h
YT (IL-2 2.5 ng/mL) [24] = experiment: as above; settings: 72 h
[25] = system: normal primary NK cells, pool 1 (3 donors) (IL-2 2.5 ng/mL); experiment: as above; settings: 72 h
[26] = system: normal primary NK cells, pool 1 (3 donors), resting (IL-2 0 ng/mL); experiment: as above; settings: 72 h
[27] = system: normal primary NK cells, pool 2 (3 donors) (IL-2 2.5 ng/mL); experiment: as above; settings: 72 h
[28] = system: normal primary NK cells, pool 3 (3 donors) (IL-2 2.5 ng/mL); experiment: as above; settings: 72 h

CC(=O)O[C@H]1C(=O)[C@@]2(C)[C@H]([C@H](OC(=O)c3ccccc3)[C@]3(O)C[C@H](OC(=O)[C@H](O)[C@@H](NC(=O)c4ccccc4)c4ccccc4)C(C)=C1C3(C)C)[C@]1(OC(C)=O)CO[C@@H]1C[C@@H]2O [Paclitaxel] (max concentration tested 1000 nM)
percent inhibition of viability [%]
Settings	0.1 nM	1 nM	10 nM	100 nM	1000 nM
DERL-7 (IL-2 2.5 ng/mL) [2]	2.23	-0.79	99.4	100	99.4
IMC-1 (IL-2 20 ng/mL) [3]	-7.88	-0.55	98.5	100	99.5
KAI3 (IL-2 2.5 ng/mL) [4]	-12.1	9.77	53	60.6	46.1
KHYG-1 (IL-2 2.5 ng/mL) [5]	-5.68	-0.23	77.2	106	99.2
NK-92 (IL-2 2.5 ng/mL) [6]	-18.6	-5.15	11.3	92.6	94
NK-YS (IL-2 2.5 ng/mL) [7]	-2.51	-5.4	71.3	77.6	64.6
NKL (IL-2 2.5 ng/mL) [8]	-17.5	-11.8	84.1	93.2	87.1
SNK-6 (IL-2 2.5 ng/mL) [9]	6.76	-3.54	75.5	79	72.6
YT (IL-2 2.5 ng/mL) [10]	-2.12	-2.24	82.5	102	93.8
[1]	0.76	-4.63	3.65	56.1	55.1
[11]	-14.5	-13.4	-1.12	-4.6	3.64
[12]	-38.3	-37.4	-2.05	-14	0.96
[13]	-2.11	-0.3	-9.26	1.41	14
[14]	-12.4	-15.8	-13.3	-0.71	10.2

Settings	drug sensitivity score
DERL-7 (IL-2 2.5 ng/mL) [16]	30.3
IMC-1 (IL-2 20 ng/mL) [17]	30.2
KAI3 (IL-2 2.5 ng/mL) [18]	18.9
KHYG-1 (IL-2 2.5 ng/mL) [19]	26.9
NK-92 (IL-2 2.5 ng/mL) [20]	18.8
NK-YS (IL-2 2.5 ng/mL) [21]	22.8
NKL (IL-2 2.5 ng/mL) [22]	26.6
SNK-6 (IL-2 2.5 ng/mL) [23]	23.7
YT (IL-2 2.5 ng/mL) [24]	27.5
[15]	10.8
[25]	0
[26]	0
[27]	0.27
[28]	0
